The values that follow come from patent publication US20090012263A1, “Process for Production of (1,3-Disubstituted Indolyl)-Urea Derivatives, Intermediates Therefor, and Process for Production of the Intermediates” (KOWA COMPANY, LTD., priority 2004, published 2009).

The structures appear in SMILES notation.

The nature of this series: storage stability of the intermediate. It counts as physicochemical.

For the molecule `O=C(Nc1ccc2c(c1)c(CN1CCCC1)cn2Cc1c(Cl)cccc1Cl)Oc1ccccc1` [Example 2, 5-phenyloxycarbonylamino-3-(1-pyrrolidinylmethyl)-N-[1-(2,6-dichlorophenyl)methyl]-1H-indole], the “can be stored (storage stability)” value (room temperature under light shielding, crystalline) is reported as “over 2 years”.
With `O=C(Nc1ccc2c(CN3CCCC3)cn(Cc3c(Cl)cccc3Cl)c2c1)Oc1ccccc1` [Example 4, 6-phenyloxycarbonylamino-3-(1-pyrrolidinylmethyl)-N-[1-(2,6-dichlorophenyl)methyl]-1H-indole], the stability of storage result (under refrigeration and light shielding, amorphous powder) is given as “over 3 months”.
